“And” between values parts separate entries of the source, which are not always exact repeats. Identical values can stand only once. Records with an inconclusive call do not appear.
System: CD8F1 mice, subcutaneous mammary adenocarcinoma, T/C%
Assay: NCI In Vivo Anticancer Drug Screen. Data for tumor model Mammary Adenocarcinoma CD8F1 (subcutaneous) in CD8F1
Details: higher = larger tumour
In short: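 Antitumor activity is assessed in transplantable-tumor mice by comparing the treated group with a vehicle-treated control group. Survival or tumor size serves as the measure, reported as T divided by C.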

[1] = endpoint: median tumor weight (est.), dose: 25.0 mg/kg/injection, schedule: Q07DX005 (ip), vehicle: Klucel (hydroxypropylcellulose) (HPC)
[2] = endpoint: median tumor weight (est.), dose: 50.0 mg/kg/injection, schedule: Q07DX005 (ip), vehicle: Klucel (hydroxypropylcellulose) (HPC)
[3] = endpoint: median tumor weight (est.), dose: 200.0 mg/kg/injection, schedule: Q07DX005 (ip), vehicle: Klucel (hydroxypropylcellulose) (HPC)
[4] = endpoint: median tumor weight (est.), dose: 25.0 mg/kg/injection, schedule: Q07DX005 (ip), vehicle: saline
[5] = endpoint: median tumor weight (est.), dose: 50.0 mg/kg/injection, schedule: Q07DX005 (ip), vehicle: saline
[6] = endpoint: median tumor weight (est.), dose: 100.0 mg/kg/injection, schedule: Q07DX005 (ip), vehicle: Klucel (hydroxypropylcellulose) (HPC)

With `CCCCCCCCCCCCCCCCCCCCCC(=O)Nc1ccn(C2OC(CO)C(O)C2O)c(=O)n1` (stereo unspecified) the T/C (endpoint: median tumor weight (est.), dose: 12.5 mg/kg/injection, schedule: Q07DX005 (ip), vehicle: saline with Tween-80) was 104 % of control, the T/C (endpoint: median tumor weight (est.), dose: 25.0 mg/kg/injection, schedule: Q07DX005 (ip), vehicle: saline with Tween-80) was 68 % of control and the T/C (endpoint: median tumor weight (est.), dose: 50.0 mg/kg/injection, schedule: Q07DX005 (ip), vehicle: saline with Tween-80) was 75 % of control. The T/C (endpoint: median tumor weight (est.), dose: 100.0 mg/kg/injection, schedule: Q07DX005 (ip), vehicle: saline with Tween-80) was 69 % of control, the T/C (endpoint: median tumor weight (est.), dose: 200.0 mg/kg/injection, schedule: Q07DX005 (ip), vehicle: saline with Tween-80) was 49 % of control and the T/C (endpoint: median tumor weight (est.), dose: 400.0 mg/kg/injection, schedule: Q07DX005 (ip), vehicle: saline with Tween-80) was 53 % of control.

In the case of `O=S(=O)(SC(S(=O)(=O)c1ccccc1)S(=O)(=O)c1ccccc1)c1ccccc1`, the T/C [1] is reported as 55 % of control, the T/C [2] is reported as 90 % of control and the T/C [3] is reported as 112 % of control. The T/C (endpoint: median tumor weight (est.), dose: 400.0 mg/kg/injection, schedule: Q07DX005 (ip), vehicle: Klucel (hydroxypropylcellulose) (HPC)) was 70 % of control.

With `ClCCCN1CCCCC1CCl` (stereo unspecified) the T/C (endpoint: median tumor weight (est.), dose: 1.56 mg/kg/injection, schedule: Q07DX005 (ip), vehicle: saline) was 73 % of control, the T/C (endpoint: median tumor weight (est.), dose: 3.12 mg/kg/injection, schedule: Q07DX005 (ip), vehicle: saline) was 123 % of control and 105 % of control and the T/C (endpoint: median tumor weight (est.), dose: 6.25 mg/kg/injection, schedule: Q07DX005 (ip), vehicle: saline) was 71 % of control and 78 % of control. For the same molecule, the T/C [4] was 53 % of control and the T/C [5] was 3 % of control.

With `CN(C1=NS(=O)(=O)N=C(N(C)c2ccccc2)O1)c1ccccc1` the T/C (endpoint: median tumor weight (est.), dose: 12.5 mg/kg/injection, schedule: Q07DX005 (ip), vehicle: Klucel (hydroxypropylcellulose) (HPC)) was 86 % of control, the T/C [1] was 88 % of control and the T/C [2] was 90 % of control. For the same molecule, the T/C [6] was 123 % of control and 115 % of control, the T/C [3] was 86 % of control and 111 % of control and the T/C (endpoint: median tumor weight (est.), dose: 800.0 mg/kg/injection, schedule: Q07DX005 (ip), vehicle: Klucel (hydroxypropylcellulose) (HPC)) was 85 % of control. For the same molecule, the T/C (endpoint: median tumor weight change, dose: 50.0 mg/kg/injection, schedule: Q01DX001 (ip), vehicle: Klucel (hydroxypropylcellulose) (HPC)) was 76 % of control, the T/C (endpoint: median tumor weight change, dose: 100.0 mg/kg/injection, schedule: Q01DX001 (ip), vehicle: Klucel (hydroxypropylcellulose) (HPC)) was 71 % of control and 75 % of control and 91 % of control and the T/C (endpoint: median tumor weight change, dose: 800.0 mg/kg/injection, schedule: Q01DX001 (ip), vehicle: Klucel (hydroxypropylcellulose) (HPC)) was 47 % of control and 64 % of control and 69 % of control. For the same molecule, the T/C (endpoint: median tumor weight change, dose: 1600.0 mg/kg/injection, schedule: Q01DX001 (ip), vehicle: Klucel (hydroxypropylcellulose) (HPC)) was 70 % of control.

In the case of `OC(CBr)C(O)C(O)C(O)CBr` (stereo unspecified), the T/C (endpoint: mean tumor weight, dose: 100.0 mg/kg/injection, schedule: Q01DX009 (ip), vehicle: saline) is reported as 164 % of control, the T/C (endpoint: mean tumor weight, dose: 150.0 mg/kg/injection, schedule: Q01DX009 (ip), vehicle: saline) is reported as 89 % of control and the T/C (endpoint: mean tumor weight, dose: 200.0 mg/kg/injection, schedule: Q01DX009 (ip), vehicle: saline) is reported as 69 % of control. For the same molecule, the T/C (endpoint: mean tumor weight, dose: 300.0 mg/kg/injection, schedule: Q01DX009 (ip), vehicle: saline) was 49 % of control, the T/C (endpoint: mean tumor weight, dose: 400.0 mg/kg/injection, schedule: Q01DX009 (ip), vehicle: saline) was 53 % of control and the T/C (endpoint: mean tumor weight, dose: 500.0 mg/kg/injection, schedule: Q01DX009 (ip), vehicle: saline) was 38 % of control. The T/C [1] was 49 % of control, the T/C [4] was 84 % of control and the T/C [5] was 32 % of control. For the same molecule, the T/C [6] was 31 % of control, the T/C (endpoint: median tumor weight (est.), dose: 100.0 mg/kg/injection, schedule: Q07DX005 (ip), vehicle: saline) was 41 % of control and the T/C [3] was 2 % of control. For the same molecule, the T/C (endpoint: median tumor weight (est.), dose: 200.0 mg/kg/injection, schedule: Q07DX005 (ip), vehicle: saline) was 28 % of control, the T/C (endpoint: median tumor weight (est.), dose: 400.0 mg/kg/injection, schedule: Q07DX005 (ip), vehicle: saline) was 7 % of control and the T/C (endpoint: median tumor weight (est.), dose: 1200.0 mg/kg/injection, schedule: Q07DX005 (ip), vehicle: Klucel (hydroxypropylcellulose) (HPC)) was 13 % of control. The T/C (endpoint: median tumor weight change, dose: 150.0 mg/kg/injection, schedule: Q01DX001 (ip), vehicle: Klucel (hydroxypropylcellulose) (HPC)) was 95 % of control, the T/C (endpoint: median tumor weight change, dose: 300.0 mg/kg/injection, schedule: Q01DX001 (ip), vehicle: Klucel (hydroxypropylcellulose) (HPC)) was 39 % of control and the T/C (endpoint: median tumor weight change, dose: 600.0 mg/kg/injection, schedule: Q01DX001 (ip), vehicle: Klucel (hydroxypropylcellulose) (HPC)) was 51 % of control.

With `Cc1c(CNc2ccc(C(=O)NC(CC(=O)O)C(=O)O)cc2)ccc2nc(N)nc(N)c12` (stereo unspecified) the T/C (endpoint: median tumor weight (est.), dose: 3.12 mg/kg/injection, schedule: Q07DX005 (ip), vehicle: saline with Tween-80) was 28 % of control, the T/C (endpoint: median tumor weight (est.), dose: 3.13 mg/kg/injection, schedule: Q07DX005 (ip), vehicle: saline with Tween-80) was 26 % of control and the T/C (endpoint: median tumor weight (est.), dose: 6.25 mg/kg/injection, schedule: Q07DX005 (ip), vehicle: saline with Tween-80) was 29 % of control.

From PubChem BioAssay AID220 (DTP/NCI, 2004)
